Data published in patent US20230172884A1, “USE OF BUCILLAMINE IN THE TREATMENT OF INFECTIOUS DISEASES” (Revive Therapeutics Ltd, priority 2020, published 2023).

Key:
[1] = statement with literature references 8, 9; cited from earlier work
[2] = not told; cited from earlier work
[3] = versus N-acetylcysteine (NAC); cited from earlier work
COVID-19 = experiment: Phase 3 multi-center, randomized, double-blind, placebo-controlled study of Bucillamine in patients with mild-moderate COVID-19; type: in vivo, human; conditions: Bucillamine 100 mg or 200 mg TID for up to 14 days, preliminary indications to date
Protocol: A Phase 3 confirmatory clinical trial titled, “A Multi-Center, Randomized, Double-Blind, Placebo-Controlled Study of Bucillamine in Patients with Mild-Moderate COVID-19”, was undertaken to enroll up to 1,000 patients randomized 1:1:1 to receive Bucillamine 100 mg three times a day (“TID”), Bucillamine 200 mg TID or placebo TID for up to 14 days. The primary objective is to compare the frequency of hospitalization or death in patients with mild-moderate COVID-19 receiving Bucillamine therapy with those receiving placebo. The primary endpoint is the proportion of patients meeting a composite endpoint of hospitalization or death from the time of the first dose through Day 28 following randomization. Efficacy was assessed by comparing clinical outcomes (death or hospitalization), disease severity using the 8-category NIAID COVID ordinal scale, supplemental oxygen use, and progression of COVID-19 between patients receiving standard-of-care plus Bucillamine (high dose and/or low dose) and patients receiving standard-of-care plus placebo.

For `CC(C)(S)C(=O)NC(CS)C(=O)O` (stereo not drawn) [Bucillamine, N-(mercapto-2-methylpropionyl)-l-cysteine], the toxicity [1] is listed as “non-toxic”, the cell permeability [2] is listed as “highly cell permeable” and the “potency as a thiol donor in vivo relative to NAC” value [3] is listed as 16 fold. The “hospitalization or death from COVID-19 (composite clinical outcome)” value (COVID-19) was “none of the patients receiving Bucillamine in the trial have to date been hospitalised for COVID-19 or have died from COVID-19”.
